From patent US20070135470A1, “Utilization of vinpocetine to avoid complications in particular those associated to hearing which occur with epilepsy, and treatment thereof” (UNIVERSIDAD NACIONAL AUTONOMA DE MEXICO, priority 2003, published 2007)

Assays:
Type in all cases: in vivo, guinea pig
[1] = tested on: hearing loss induced by 4-AP in guinea pigs; assay: ABR (auditory) threshold in 4-AP-induced epilepsy; settings: vinpocetine 2 mg/kg or vehicle 1 h before 4-AP
Description: (§1) Experiments were performed in pigmented adult male guinea pigs initially weighing 349±38 g. ABRs recordings were used to evaluate the hearing status of each animal and EEG recordings to evaluate changes in cortical excitability. The ABR and EEG recordings were obtained following a method that we have previously reported (Nekrassov and Sitges, 2003). The Institutional Animal Use and Care Committee approved all experimental procedures.
(§2) Three types of recordings were performed in the anaesthetized animals, namely the ABR recordings elicited by a stimulus of high intensity (100 dB), the ABR recordings for determination of the auditory threshold and the EEG recordings.
(§3) Determination of ABR thresholds. ABR recordings elicited by stimuli of progressively lower intensity (in dB) were used for determining the hearing threshold. Threshold is defined as the lowest stimulus intensity (in dB) at which the P3 wave of the ABR could still be recorded in three consecutive trials.
(§4) Student's t-test was used for the evaluation of the differences between results obtained before and at the specified times after the injection of the convulsing agents. The criterion for statistical significance for all measures was P≦0.05. All data are expressed as means±standard error of the mean. In figures and tables the symbol * is used for indicating statistic significant differences.
(§5) Five guinea pigs were entered into the study. One hour after injecting guinea pigs with vehicle (acidified saline used to dissolve vinpocetine) the animals were anaesthetized and a first set of ABR and EEG recordings was taken before the injection (i.p) of the convulsing agent, 4-AP. The animals were injected with 4-AP (2 mg/kg) and about 20 min after injecting 4-AP (ictal period) the EEG recording was taken. Then the other series of ABR and EEG recordings were taken at specific times within the post-ictal period. After two weeks the same series of recordings were repeated but instead vehicle the animals were injected with vinpocetine (2 mg/kg) 1 hour before the injection of 4-AP.

[2] = tested on: epilepsy induced by 4-AP in guinea pigs; assay: ABR wave parameters (amplitude, latency) in 4-AP-induced epilepsy; settings: 100 dB, vinpocetine 2 mg/kg or vehicle 1 h before 4-AP
Description: as §1, §2
(§6) Determination of ABR wave parameters. The latency and amplitude of each wave component of the ABR elicited by a stimulus of 100 dB with pure tone frequencies of 4 and 8 kHz was measured in all the ABR recordings obtained under the different experimental conditions at the specified times. The latency of each ABR wave (in ms) refers to the time interval between the onset of the auditory stimulus and the positive peak of the wave. The onset of the stimulus is indicated by the vertical arrow at the bottom of the recordings on FIG. 1. The peak amplitude (in μV) of each wave of the ABR is the difference between the positive peak of the wave and the reference baseline (trace between the stimulus and the appearance of the first ABR wave on FIG. 1).
as §4, §5

[3] = tested on: epileptic cortical activity induced by 4-AP in guinea pigs; assay: EEG recordings of cortical activity in 4-AP-induced epilepsy; settings: 4-AP 2 mg/kg i.p.
Description: as §1, §2, §5
Vinpocetine inhibits all the changes induced by 4-AP on the EEG. […] This change on the cortical activity elicited by 4-AP for the ictal period is followed by the post-ictal period characterized by isolated spikes of higher amplitude that appear on the EEG about one hour after the injection of 4-AP. […] The top traces of FIG. 6 show the characteristic EEG recordings taken before the injection of 4-AP in the animals pre-injected with vehicle (a) and in the animals pre-injected with vinpocetine (b). The changes induced by 4-AP on for the ictal period are shown in the second trace on FIG. 6a. In the vinpocetine treated animals 4-AP was unable to induce the ictal activity (second trace on FIG. 6b).

[4] = tested on: hearing loss induced by PTZ in guinea pigs; assay: ABR (auditory) threshold in PTZ-induced epilepsy; settings: vinpocetine 2 mg/kg or vehicle 4 h before PTZ
Description: as §1, §2, §3, §4
(§7) Eight male guinea pigs were entered into this study. PTZ was dissolved in saline and vinpocetine in a saline acidified (with HCl) adjusted to pH 4 (with NaOH). Four hours after injecting guinea pigs with vehicle (acidified saline used to dissolve vinpocetine) the animals were anaesthetized and a first set of ABR and EEG recordings was taken before the injection (i.p) of the convulsing agent, PTZ. The animals were injected with PTZ (100 mg/kg) and about 2 min after injecting PTZ (ictal period) the EEG recording was taken. Then the other series of ABR and EEG recordings were taken at specific times within the post-ictal period. After two weeks the same series of recordings was taken but instead vehicle the animals were injected with vinpocetine (2 mg/kg) 4 hours before the injection of PTZ.

[5] = tested on: epilepsy induced by PTZ in guinea pigs; assay: ABR wave parameters (amplitude, latency) in PTZ-induced epilepsy; settings: 100 dB, vinpocetine 2 mg/kg or vehicle 4 h before PTZ
Description: as §1, §2, §6, §4, §7

[6] = tested on: epileptic cortical activity induced by PTZ in guinea pigs; assay: EEG recordings of cortical activity in PTZ-induced epilepsy; settings: PTZ 100 mg/kg i.p.
Description: as §1, §2, §7
Vinpocetine inhibits all the changes induced by PTZ on the EEG. […] This dramatic change on the cortical activity induced by PTZ in the anaesthetized animals during convulsions is followed by a typical pattern of cortical activity characterized by rhythmic spike bursts of high amplitude. The duration time of this typical pattern of cortical activity, that is not accompanied by convulsions is referred as the post-ictal period.

[7] = 4 kHz, 30 min after 4-AP 2 mg/kg i.p.
[8] = 4 kHz, 60 min after 4-AP 2 mg/kg i.p.
[9] = 8 kHz, 30 min after 4-AP 2 mg/kg i.p.
[10] = 8 kHz, 60 min after 4-AP 2 mg/kg i.p.
[11] = animals pre-injected with vehicle
[12] = 4 kHz, 30 min after PTZ 100 mg/kg i.p.
[13] = 4 kHz, 50 min after PTZ 100 mg/kg i.p.
[14] = 8 kHz, 30 min after PTZ 100 mg/kg i.p.
[15] = 8 kHz, 50 min after PTZ 100 mg/kg i.p.

## Nc1ccncc1 [4-AP, 4-aminopyridine]
[1]; [7]
  auditory threshold: 20 ± 2.0 * dB
[1]; [8]
  auditory threshold: 30 ± 3.5 * dB
[1]; [9]
  auditory threshold: 10.0 ± 2.0 * dB
[1]; [10]
  auditory threshold: 23.8 ± 6.3 * dB
[2]; [7]
  latency of the P4 wave of the ABR: 3.78 ± 0.09 * ms
[2]; [8]
  latency of the P4 wave of the ABR: 3.78 ± 0.09 * ms
[2]; 4 kHz, 80 min after 4-AP 2 mg/kg i.p.
  latency of the P4 wave of the ABR: 3.78 ± 0.09 * ms
[2]; 4 kHz, 100 min after 4-AP 2 mg/kg i.p.
  latency of the P4 wave of the ABR: 3.75 ± 0.10 * ms
[2]; [9]
  latency of the P4 wave of the ABR: 3.51 ± 0.13 ms
[2]; [10]
  latency of the P4 wave of the ABR: 3.80 ± 0.10 * ms
[2]; 8 kHz, 80 min after 4-AP 2 mg/kg i.p.
  latency of the P4 wave of the ABR: 3.80 ± 0.10 * ms
[2]; 8 kHz, 100 min after 4-AP 2 mg/kg i.p.
  latency of the P4 wave of the ABR: 3.83 ± 0.12 * ms
[3]
  time of appearance of seizure (spike-sharp wave) activity in the EEG after injection: about 20 min
[3]; [11]
  seizure induction in anaesthetized animals: developed generalized seizures

## C1CCc2nnnn2CC1 [PTZ, pentylenetetrazole]
[4]; [12]
  auditory threshold: 28 ± 2.0 * dB
[4]; [13]
  auditory threshold: 29 ± 1.0 * dB
[4]; [14]
  auditory threshold: 17 ± 2.0 * dB
[4]; [15]
  auditory threshold: 21 ± 2.4 * dB
[5]; 4 kHz, 10 min after PTZ 100 mg/kg i.p.
  P4 wave peak amplitude of the ABR: 1.70 ± 0.5 * μV
[5]; 4 kHz, 20 min after PTZ 100 mg/kg i.p.
  P4 wave peak amplitude of the ABR: 2.12 ± 0.4 * μV
[5]; [12]
  P4 wave peak amplitude of the ABR: 1.84 ± 0.4 * μV
[5]; [13]
  P4 wave peak amplitude of the ABR: 2.11 ± 0.3 * μV
[5]; 8 kHz, 10 min after PTZ 100 mg/kg i.p.
  P4 wave peak amplitude of the ABR: 2.07 ± 0.4 * μV
[5]; 8 kHz, 20 min after PTZ 100 mg/kg i.p.
  P4 wave peak amplitude of the ABR: 1.99 ± 0.3 * μV
[5]; [14]
  P4 wave peak amplitude of the ABR: 1.92 ± 0.3 * μV
[5]; [15]
  P4 wave peak amplitude of the ABR: 1.51 ± 0.5 * μV
[6]
  onset of seizure activity in the EEG after injection: within the two first min
[6]; [11]
  seizure induction in anaesthetized animals: developed generalized seizures
